One test concerns the target TEAD4 (Homo sapiens (Human), UniProt Q15561). The test can be described thus: TR-FRET lipid pocket probe competition assay (Lipid HTRF), TEAD4.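 Also: His-tagged TEAD4 with biotinylated lipid-pocket probe, read by Europium anti-His and XL665 streptavidin, where probe displacement lowers the TR-FRET signal, IC50 from a four-parameter fit.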 Particulars: 4 hours pre-incubation; read-out: Lipid HTRF TEAD4 IC50. The class given is binding. A general note: TR-FRET usually uses a lanthanide donor and a delayed reading to cut background.
Another test deals with TEAD3 (Homo sapiens (Human), UniProt Q99594). The test can be described thus: TR-FRET lipid pocket probe competition assay (Lipid HTRF), TEAD3. Conditions: 4 hours pre-incubation; read-out: Lipid HTRF TEAD3 IC50. The class given is binding.
Chain of TEAD3 (Q99594 whole entry, species assumed): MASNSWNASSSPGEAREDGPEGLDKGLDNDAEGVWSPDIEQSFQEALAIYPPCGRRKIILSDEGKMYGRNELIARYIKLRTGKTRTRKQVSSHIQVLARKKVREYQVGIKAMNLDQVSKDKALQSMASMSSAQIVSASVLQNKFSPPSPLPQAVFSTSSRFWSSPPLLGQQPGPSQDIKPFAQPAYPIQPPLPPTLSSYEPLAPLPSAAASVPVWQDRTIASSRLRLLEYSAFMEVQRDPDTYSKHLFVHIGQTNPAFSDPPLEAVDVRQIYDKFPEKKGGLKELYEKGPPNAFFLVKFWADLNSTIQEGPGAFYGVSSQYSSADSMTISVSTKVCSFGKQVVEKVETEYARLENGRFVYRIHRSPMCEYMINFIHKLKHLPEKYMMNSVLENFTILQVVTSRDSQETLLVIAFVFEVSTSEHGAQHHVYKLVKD
For the next test, the target named is TEAD1 (Homo sapiens (Human), UniProt P28347). The test can be described thus: TR-FRET lipid pocket probe competition assay (Lipid HTRF), TEAD1.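 Also: His-tagged TEAD1 with biotinylated probe, detected via Europium anti-His and XL665 streptavidin, probe displacement lowers TR-FRET signal, IC50 from four-parameter nonlinear fit.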 The test is classed as binding. Conditions: 4 hours pre-incubation; read-out: Lipid HTRF TEAD1 IC50.
Chain of TEAD1 (P28347 whole entry, species assumed): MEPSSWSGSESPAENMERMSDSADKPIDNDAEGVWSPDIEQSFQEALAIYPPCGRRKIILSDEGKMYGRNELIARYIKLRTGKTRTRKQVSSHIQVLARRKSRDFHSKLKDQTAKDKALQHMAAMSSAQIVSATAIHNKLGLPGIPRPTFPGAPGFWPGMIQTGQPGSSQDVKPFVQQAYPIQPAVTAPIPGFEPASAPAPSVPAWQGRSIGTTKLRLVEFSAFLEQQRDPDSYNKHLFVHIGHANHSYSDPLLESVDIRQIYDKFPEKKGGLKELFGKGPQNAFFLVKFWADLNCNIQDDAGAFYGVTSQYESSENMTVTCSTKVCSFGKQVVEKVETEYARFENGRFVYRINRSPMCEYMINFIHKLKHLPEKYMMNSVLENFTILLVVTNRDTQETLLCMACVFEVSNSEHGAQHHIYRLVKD
For the next test, the target named is TEAD2 (Homo sapiens (Human), UniProt Q15562).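 Also: TR-FRET competition assay with His-tagged TEAD protein and a biotinylated lipid pocket probe, compound pre-incubated 30 min or 4 h at room temperature, displacement lowers signal.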
Chain of TEAD2 (Q15562 whole entry, species assumed): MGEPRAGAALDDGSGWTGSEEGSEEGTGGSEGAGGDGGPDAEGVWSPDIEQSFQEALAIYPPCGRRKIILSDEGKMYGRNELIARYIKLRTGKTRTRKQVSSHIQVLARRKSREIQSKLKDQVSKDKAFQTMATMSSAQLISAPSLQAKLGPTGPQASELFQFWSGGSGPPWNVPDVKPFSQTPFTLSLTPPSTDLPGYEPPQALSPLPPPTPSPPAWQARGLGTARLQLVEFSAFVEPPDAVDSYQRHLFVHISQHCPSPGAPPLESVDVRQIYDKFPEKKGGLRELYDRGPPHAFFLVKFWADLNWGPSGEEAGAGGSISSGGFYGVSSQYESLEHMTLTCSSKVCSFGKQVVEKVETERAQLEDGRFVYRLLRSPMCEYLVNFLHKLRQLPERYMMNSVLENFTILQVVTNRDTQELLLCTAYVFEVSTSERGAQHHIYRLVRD

The values that follow come from patent US12110276B2 (Genentech, Inc., priority 2021, dated 2024).

Chain of TEAD4 (Q15561 whole entry, species assumed): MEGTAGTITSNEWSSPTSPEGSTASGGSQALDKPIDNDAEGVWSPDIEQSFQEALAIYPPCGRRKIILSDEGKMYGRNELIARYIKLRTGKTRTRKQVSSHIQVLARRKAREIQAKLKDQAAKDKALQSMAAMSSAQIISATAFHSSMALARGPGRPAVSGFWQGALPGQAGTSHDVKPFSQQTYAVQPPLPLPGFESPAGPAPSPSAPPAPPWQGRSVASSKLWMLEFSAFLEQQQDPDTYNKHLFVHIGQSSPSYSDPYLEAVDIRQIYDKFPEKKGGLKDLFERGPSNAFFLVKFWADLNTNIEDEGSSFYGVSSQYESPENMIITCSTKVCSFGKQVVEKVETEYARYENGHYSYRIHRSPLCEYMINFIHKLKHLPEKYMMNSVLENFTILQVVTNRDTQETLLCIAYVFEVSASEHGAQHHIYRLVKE

With `C=CC(=O)NCc1nn(-c2ccc(OC(F)(F)F)cc2)c2nccc(O[C@H]3C[C@@H](O)C3)c12` [Compound 34, N-((4-(cis-3-Hydroxycyclobutoxy)-1-(4-(trifluoromethoxy)phenyl)-1H-pyrazolo[3,4-b]pyridin-3-yl)methyl)acrylamide], the concentration for half-maximal inhibition (IC50) (in general, the point on the concentration scale where inhibition reaches its midpoint) on TEAD4 is 39 nM; on TEAD3, 50000 nM; at TEAD1, 23 nM; against TEAD2, 340 nM.
Regarding `C=CC(=O)NCc1nn(-c2ccc(OC(F)(F)F)cc2)c2nccc(-c3cnn(CCO)c3)c12` [Compound 35, N-((4-(1-(2-Hydroxyethyl)-1H-pyrazol-4-yl)-1-(4-(trifluoromethoxy)phenyl)-1H-pyrazolo[3,4-b]pyridin-3-yl)methyl)acrylamide], the IC50 on TEAD4 turned out to be 14 nM; on TEAD3, 640 nM; at TEAD1 it was 17 nM; against TEAD2, 170 nM.
In the same order, the values of `C=CC(=O)NCc1nn(-c2ccc(OC(F)(F)F)cc2)c2nccc(NCCO)c12` [Compound 36, N-((4-((2-Hydroxyethyl)amino)-1-(4-(trifluoromethoxy)phenyl)-1H-pyrazolo[3,4-b]pyridin-3-yl)methyl)acrylamide] are 5.8 nM, 500 nM, 9.2 nM and 120 nM.
In the same order, the values of `O=C(/C=C/Cl)NCc1nn(-c2ccc(OC(F)(F)F)cc2)c2nccc(CO)c12` [Compound 37, (E)-3-Chloro-N-((4-(hydroxymethyl)-1-(4-(trifluoromethoxy)phenyl)-1H-pyrazolo[3,4-b]pyridin-3-yl)methyl)acrylamide] are 3.2 nM, 33 nM, 6.9 nM and 14 nM.
With `C=CC(=O)NCc1nn(-c2ccc(OC(F)(F)F)cc2)c2nccc([C@H]3C[C@@H](O)C3)c12` [Compound 38, N-((4-(cis-3-Hydroxycyclobutyl)-1-(4-(trifluoromethoxy)phenyl)-1H-pyrazolo[3,4-b]pyridin-3-yl)methyl)acrylamide], the IC50 on TEAD4 was 39 nM; at TEAD3, 50000 nM; on TEAD1 it was 180 nM; on TEAD2 it was 100 nM.
For `C=C(F)C(=O)N1CC(c2nn(-c3ccc(OC(F)(F)F)cc3)c3nccc(N4CC(F)(CO)C4)c23)C1` [Compound 39, 2-Fluoro-1-(3-(4-(3-fluoro-3-(hydroxymethyl)azetidin-1-yl)-1-(4-(trifluoromethoxy)phenyl)-1H-pyrazolo[3,4-b]pyridin-3-yl)azetidin-1-yl)prop-2-en-1-one] the same measures were 5.4 nM, 840 nM, 42 nM and 19 nM.
With `COC/C=C/C(=O)N1CC(c2nn(-c3ccc(OC(F)(F)F)cc3)c3nccc(CO)c23)C1` [Compound 40, (E)-1-(3-(4-(Hydroxymethyl)-1-(4-(trifluoromethoxy)phenyl)-1H-pyrazolo[3,4-b]pyridin-3-yl)azetidin-1-yl)-4-methoxybut-2-en-1-one], the IC50 turned out to be 13 nM at TEAD4, 66 nM on TEAD3, 16 nM at TEAD1 and 48 nM against TEAD2.
Regarding `C=C(F)C(=O)N1CC(c2nn(-c3ccc(OC(F)(F)F)cc3)c3nccc(NC(=O)CO)c23)C1` [Compound 42, N-(3-(1-(2-Fluoroacryloyl)azetidin-3-yl)-1-(4-(trifluoromethoxy)phenyl)-1H-pyrazolo[3,4-b]pyridin-4-yl)-2-hydroxyacetamide], the IC50 came out at 25 nM at TEAD4, 27 nM on TEAD3, 20 nM at TEAD1 and 200 nM against TEAD2.
In the same order, the values of `C=CC(=O)NCc1nn(-c2ccc(OC(F)(F)F)cc2)c2nccc(N3CC(CO)C3)c12` [Compound 43, N-((4-(3-(hydroxymethyl)azetidin-1-yl)-1-(4-(trifluoromethoxy)phenyl)-1H-pyrazolo[3,4-b]pyridin-3-yl)methyl)acrylamide] are 4.6 nM, 780 nM, 13 nM and 54 nM.
